Data reported in patent publication US7064145B2, “Inhibition of beta cell degeneration” (Novo Nordisk A/S, priority 2000, dated 2006).
Values joined by “and” are separate entries in the source; they are usually repeats but may differ in a detail not shown here. Identical values can stand only once. Ends that are not written are not given here.

Columns and labels:
[1] = system: remnant and regenerated pancreatic tissue (beta cells); assay: Pancreatic tissue regeneration, BrdU and insulin immunohistochemistry after 60% pancreatectomy; format: in vivo, Sprague-Dawley rats; design: key to Amount of regenerated tissue: The amount of regenerated tissue was scored on the following range: −, (+), +, ++, +++; The amount of regenerated tissue was scored on the following range: −, (+), +, ++, +++; The amount of regenerated tissue was scored on the following range: −, (+), +, ++, +++; The amount of regenerated tissue was scored on the following range: −, (+), +, ++, +++; The amount of regenerated tissue was scored on the following range: −, (+), +, ++, +++; conditions: 20 mg/kg p.o. x2, day 4 to 8
Description: A 60% pancreatectomy was performed on a total of 12 male Sprague-Dawley rats. Vehicle and the DPP-IV inhibitor Val-Pyr was administered to 6 of these from day 4 to 8 in a dose of 20 mg/kg p.o. x2, while the remaining 6 rats were treated with vehicle alone.
The proliferation of beta cells was measured as incorporation of the thymidine analogue 5-bromo-2-deoxyuridine (BrdU) into DNA in insulin-positive cells. 8 days after the 60% pancreatectomy, 100 mg/kg BrdU was administered i.p. and 4 hours later the area containing remnant and regenerated pancreatic tissue was removed and processed for immunohistochemistry. Three adjacent sections from each animal were stained for insulin and BrdU. The amount of regenerated tissue was scored on the following range: −, (+), +, ++, +++. The location of BrDU was examined in regenerated pancreatic (reg) and exocrine (ex) tissue. Insulin staining was scored as weak (W), normal (N), and in regenerated tissue (+R).

[2] = Oral Glucose Tolerance Test (OGTT) at day 8 in 60% pancreatectomized rats; format: in vivo, Sprague-Dawley rats; conditions: 20 mg/kg p.o. x2, day 4 to 8
[3] = system: pancreatic islet cells from newborn rats; assay: Beta cell proliferation in vitro (BrdU incorporation into DNA in insulin-positive cells); format: cell-based
Description: In our efforts to identify beta cell growth factors we discovered that GLP-1 indeed could stimulate beta cell proliferation in vitro. The proliferation was measured as incorporation of the thymidine analogue 5-bromo-2-deoxyuridine (BrdU) into DNA in insulin-positive cells in pancreatic islet cells from newborn rats.

Compound | Animals with insulin expressed in islets located in the regenerating pancreatic tissue ([1]; vehicle alone 1 out of 6) | Amount of regenerated tissue ([1]; per animal, tissue removed 8 days after 60% pancreatectomy, 20 mg/kg) | Glucose excursion AUC after OGTT [2] | Number of labelled (BrdU) beta cells [3]
CC(C)[C@H](N)C(=O)N1CCCC1 [Val-Pyr] | 5 out of 6 | + (5×) and ++ | ~50 % of vehicle | –
GLP-1: insulinotropic hormone Glucagon like peptide-1 (HAEGTFTSDVSSYLEGQAAKEFIAWLVKGR; ends and bridges not checked; UniProt P01275 98-127, looked up) | – | – | – | increase the number of labelled beta cells
